In article PMC8348901, “Novel N-Substituted 3-Aryl-4-(diethoxyphosphoryl)azetidin-2-ones as Antibiotic Enhancers and Antiviral Agents in Search for a Successful Treatment of Complex Infections” (International Journal of Molecular Sciences, 2021):
Where two headings read alike, the source gives them in different places.

Assays:
[1] = system: MRSA HEMSA 5; test: Oxacillin MIC reduction (adjuvant) microdilution assay; assay type: cell-based, Staphylococcus aureus; details: for Activity Gain [A]: MIC(OXA)/MIC(OXA+Cpd), compound 0.5 mM, adjuvant activity if A ≥ 4
Procedure: (§1) Since the lack of direct antibacterial activity of the obtained azetidinones was observed, all isomers trans and cis were investigated on their “adjuvant” properties, i.e., an ability to enhance the effectiveness of antibiotics against S. aureus strains. Thus, the compounds were tested in combination with the known β-lactam antibiotic, oxacillin, in the microdilution assays. The ability of the tested azetidinones to reduce minimum inhibitory concentration (MIC) of oxacillin against both, the referenced and the resistant S. aureus strains, was assessed.
(§2) The in-vitro antibacterial property and the capacity of tested compounds to increase the efficacy of antibiotics were evaluated in two Staphylococcus aureus strains, i.e., the reference clonal complex 5 (CC5) methicillin-susceptible (MSSA) strain ATCC 25923, and the methicillin-resistant (MRSA) extensively drug-resistant (XDR) clinical isolate HEMSA-5 [46].
(§3) In order to assess the increase of antibiotic efficacy, the assays were conducted by determining if/to what extent the investigated compounds reduce MICs of oxacillin by means of a serial dilution broth microplate method, in accordance with the CLSI requirements. The concentrations of compounds used in the MICs reduction assay were no greater than 1/4 of their respective MICs to ensure that cell viability was not affected by the intrinsic antibacterial activity of the molecules. Serial two-fold dilutions of oxacillin (Sigma-Aldrich; St. Louis, MI, USA, cat. no. 28221), were prepared in […] of the Mueller–Hinton broth (Merck; Darmstadt, Germany, cat. no. 1102930500). Suitable concentrations of the compounds (total volume […]) were then added. Bacterial suspensions were diluted to OD ¼ 0.5. The resulting suspensions were then diluted 1:100 and added in the volume of […] into the oxacillin serial dilutions with the compounds. The results were read after 20-h incubation at 37 °C.
(§4) The ability of compounds to improve antibiotic efficacy was expressed as the activity gain [A] parameter calculated according to the formula given in Figure 10.
(§5) Figure 10 Activity gain. MICAnt corresponds to the MIC of oxacillin in the absence of a compound tested and MICAnt + Comp refers to the MIC of oxacillin paired with a compound tested.

[2] = system: S. aureus ATCC 25923; test: as above; assay type: cell-based, Staphylococcus aureus; details: for Activity Gain [A]: MIC(OXA)/MIC(OXA+Cpd), compound 0.5 mM, adjuvant activity if A ≥ 4
Procedure: as §1, §2, §3, §4, §5

[3] = system: DND-41 (acute lymphoblastic leukemia); test: Cytostatic activity (cell proliferation); assay type: cell-based
Procedure: (§6) The 50% cytostatic inhibitory concentration (IC50) causing a 50% decrease in cell proliferation was determined for all obtained compounds toward 9 cancerous cell lines, i.e.,: Capan-1 (pancreatic adenocarcinoma), Hap1 (chronic myeloid leukemia), HCT-116 (colorectal carcinoma), NCI-H460 (lung carcinoma), DND-41 (acute lymphoblastic leukemia), HL-60 (acute myeloid leukemia), K-562 (chronic myeloid leukemia), MM.1S (multiple myeloma), Z-138 non-Hodgkin lymphoma), as well as normal retina (non-cancerous) cells (hTERT RPE-1). Docetaxel, etoposide and stauroporine were used as the reference compounds.
(§7) All assays were performed in 96-well microtiter plates. To each well was added (5–7.5) × 10^4 tumor cells and a given amount of the tested compound. The cells were allowed to proliferate at 37 °C in a humidified, CO2-controlled atmosphere. At the end of the incubation period, the cells were counted in a Coulter counter. The IC50 (50% inhibitory concentration) was defined as the concentration of the compound that inhibited cell proliferation by 50%.

[4] = system: HCT-116 (colorectal carcinoma); test: Cytostatic activity (cell proliferation); assay type: cell-based
Procedure: as §6, §7

[5] = system: Hap1 (chronic myeloid leukemia); test: Cytostatic activity (cell proliferation); assay type: cell-based
Procedure: as §6, §7

[6] = system: NCI-H460 (lung carcinoma); test: Cytostatic activity (cell proliferation); assay type: cell-based
Procedure: as §6, §7

[7] = system: hTERT RPE-1 normal retina (non-cancerous) cells; test: Cytostatic activity (cell proliferation); assay type: cell-based
Procedure: as §6, §7

[8] = system: Capan-1 (pancreatic adenocarcinoma); test: Cytostatic activity (cell proliferation); assay type: cell-based
Procedure: as §6, with “RPE-1).” for “RPE-1). Docetaxel, etoposide and stauroporine were used as the reference compounds.”
as §7, with “counter.” for “counter. The IC50 (50% inhibitory concentration) was defined as the concentration of the compound that inhibited cell proliferation by 50%.”

[9] = oxacillin MIC in presence of 0.5 mM compound

| MIC ([1]; Staphylococcus aureus, oxacillin alone, read-out: OXA MIC) | MIC ([2]; Staphylococcus aureus, ATCC25923, oxacillin alone, read-out: OXA MIC) | Structure (SMILES) | Activity Gain [A] [1] | Activity Gain [A] [2] | IC50 ([3]; DND41) | IC50 ([4]; Homo sapiens, HCT-116) | IC50 ([5]; Homo sapiens, HAP1) | IC50 ([6]; Homo sapiens, NCI-H460) | IC50 ([7]; hTERT-RPE1) | IC50 ([8]; Homo sapiens, CAPAN-1) | IC50 [3] | IC50 [4] | IC50 [5] | IC50 [6] | IC50 [7] | OXA+ Cpd MIC [1, 9] | OXA+ Cpd MIC [2, 9] | IC50 [8] |
| --- | --- | --- | --- | --- | --- | --- | --- | --- | --- | --- | --- | --- | --- | --- | --- | --- | --- | --- |
| – | – | CCOP(=O)(OCC)[C@@H]1[C@H](c2ccc(F)c(C)c2)C(=O)N1C (relative stereo) [cis-10f, cis-N-methyl-3-(4-fluoro-3-methylphenyl)-4-(diethoxyphosphoryl)azetidin-2-one] | 1–2 | 0.5 | > 100 µM | > 100 µM | 97.9 µM | 87 µM | > 100 µM | 61.4 µM | – | – | – | – | – | – | – | – |
| – | – | CN[C@@H]1C[C@H]2O[C@@](C)([C@@H]1OC)n1c3ccccc3c3c4c(c5c6ccccc6n2c5c31)C(=O)NC4 [Stauroporine, reference compound] | – | – | – | – | – | – | – | – | 21.5 µM | 0.09 µM | 3.55 µM | 11.5 µM | 0.25 µM | – | – | – |
| – | – | CCOP(=O)(OCC)[C@H]1[C@H](c2cccc(F)c2)C(=O)N1Cc1ccccc1 (relative stereo) [trans-11c, trans-N-benzyl-3-(3-fluorophenyl)-4-(diethoxyphosphoryl)azetidin-2-one] | 1 | <0.5 | > 100 µM | 45.5 µM | 56.1 µM | 44.3 µM | 45.9 µM | 40.1 µM | – | – | – | – | – | – | – | – |
| – | – | CCOP(=O)(OCC)[C@H]1[C@H](c2ccc(F)c(C)c2)C(=O)N1C (relative stereo) [trans-10f, trans-N-methyl-3-(4-fluoro-3-methylphenyl)-4-(diethoxyphosphoryl)azetidin-2-one] | 1 | 0.5 | > 100 µM | > 100 µM | 41.8 µM | 59.7 µM | 90.2 µM | 47.7 µM | – | – | – | – | – | – | – | – |
| – | – | CCOP(=O)(OCC)[C@H]1[C@H](c2cccc(F)c2)C(=O)N1C (relative stereo) [trans-10c, trans-N-methyl-3-(3-fluorophenyl)-4-(diethoxyphosphoryl)azetidin-2-one] | 1 | 0.5 | > 100 µM | > 100 µM | 69.1 µM | 62.8 µM | > 100 µM | 19.6 µM | – | – | – | – | – | – | – | – |
| – | – | CCOP(=O)(OCC)[C@H]1[C@H](c2ccccc2F)C(=O)N1C (relative stereo) [trans-10b, trans-N-methyl-3-(2-fluorophenyl)-4-(diethoxyphosphoryl)azetidin-2-one] | 1 | 0.5 | > 100 µM | 44.1 µM | 38.7 µM | 34.8 µM | > 100 µM | 53.1 µM | – | – | – | – | – | – | – | – |
| – | – | CCOP(=O)(OCC)[C@@H]1[C@H](c2ccc(F)cc2F)C(=O)N1C (relative stereo) [cis-10e, cis-N-methyl-3-(2,4-difluorophenyl)-4-(diethoxyphosphoryl)azetidin-2-one] | 1 | 1 | > 100 µM | > 100 µM | > 100 µM | 92.6 µM | > 100 µM | 56.8 µM | – | – | – | – | – | – | – | – |
| – | – | CCOP(=O)(OCC)[C@H]1[C@H](c2ccccc2)C(=O)N1C (relative stereo) [trans-10a, trans-N-methyl-3-phenyl-4-(diethoxyphosphoryl)azetidin-2-one] | 1 | 1 | – | – | – | – | – | – | > 100 µM | > 100 µM | > 100 µM | 54.6 µM | > 100 µM | 512 mg/L | 0.5 mg/L | 46.2 µM |
| – | – | CCOP(=O)(OCC)[C@H]1[C@H](c2ccc(F)cc2)C(=O)N1Cc1ccccc1 (relative stereo) [trans-11d, trans-N-benzyl-3-(4-fluorophenyl)-4-(diethoxyphosphoryl)azetidin-2-one] | 2 | 0.5 | > 100 µM | 44.3 µM | 48.3 µM | 28.4 µM | 73 µM | 35.8 µM | – | – | – | – | – | – | – | – |
| – | – | CCOP(=O)(OCC)[C@H]1[C@H](c2ccccc2F)C(=O)N1Cc1ccccc1 (relative stereo) [trans-11b, trans-N-benzyl-3-(2-fluorophenyl)-4-(diethoxyphosphoryl)azetidin-2-one] | 1–2 | <0.5 | > 100 µM | > 100 µM | > 100 µM | 56.7 µM | > 100 µM | 51.9 µM | – | – | – | – | – | – | – | – |
| – | – | CCOP(=O)(OCC)[C@@H]1[C@H](c2ccc(F)cc2F)C(=O)N1Cc1ccccc1 (relative stereo) [cis-11e, cis-N-benzyl-3-(2,4-difluorophenyl)-4-(diethoxyphosphoryl)azetidin-2-one] | 1 | 0.5 | > 100 µM | > 100 µM | > 100 µM | 43 µM | > 100 µM | 48.9 µM | – | – | – | – | – | – | – | – |
| – | – | CCOP(=O)(OCC)[C@H]1[C@H](c2ccc(F)cc2)C(=O)N1C (relative stereo) [trans-10d, trans-N-methyl-3-(4-fluorophenyl)-4-(diethoxyphosphoryl)azetidin-2-one] | 1 | 0.5 | > 100 µM | > 100 µM | 58.1 µM | 41.3 µM | > 100 µM | 45.7 µM | – | – | – | – | – | – | – | – |
| – | – | COc1cc([C@@H]2c3cc4c(cc3[C@@H](O[C@@H]3O[C@@H]5CO[C@@H](C)O[C@H]5[C@H](O)[C@H]3O)[C@H]3COC(=O)[C@H]23)OCO4)cc(OC)c1O [Etoposide, reference compound] | – | – | 0.06 µM | – | 0.04 µM | 1.35 µM | 0.23 µM | 0.15 µM | – | – | – | – | – | – | – | – |
| 512 mg/L | 0.5 mg/L | Cc1onc(-c2ccccc2)c1C(=O)N[C@@H]1C(=O)N2[C@@H]1SC(C)(C)[C@@H]2C(=O)O [oxacillin, reference compound] | – | – | – | – | – | – | – | – | – | – | – | – | – | – | – | – |
| – | – | CCOP(=O)(OCC)[C@H]1[C@H](c2ccc(F)cc2F)C(=O)N1C (relative stereo) [trans-10e, trans-N-methyl-3-(2,4-difluorophenyl)-4-(diethoxyphosphoryl)azetidin-2-one] | 1 | <0.5 | > 100 µM | > 100 µM | 51.7 µM | 67.6 µM | > 100 µM | 51.7 µM | – | – | – | – | – | – | – | – |
| – | – | CC(=O)O[C@@]12CO[C@@H]1C[C@H](O)[C@@]1(C)C(=O)[C@H](O)C3=C(C)[C@@H](OC(=O)[C@H](O)[C@@H](NC(=O)OC(C)(C)C)c4ccccc4)C[C@@](O)([C@@H](OC(=O)c4ccccc4)[C@H]21)C3(C)C [Docetaxel, reference compound] | – | – | 1.63 µM | 0.25 µM | 1.19 µM | 0.89 µM | 25 µM | 0.95 µM | – | – | – | – | – | – | – | – |
